Data from patent US8785486B2, “Imidazo[1,2-A]pyridine derivatives and their use as positive allosteric modulators of mGluR2 receptors” (Janssen Pharmaceuticals, Inc., priority 2007, dated 2014).

Columns and labels:
human mGluR2 receptor = target: T1, human mGluR2 receptor (Homo sapiens, UniProt Q14416); test: [35S]GTPγS binding assay (PAM assay) using membranes from cells transfected with the human mGluR2 receptor; type: biochemical; details: membranes of CHO cells with human mGluR2, glutamate at predetermined EC25 concentration, averages of duplicate values of 11-concentration response curves; for EC50: read-out: GTPγS - hR2 PAM pEC50 (converted)
T1 construct: expressed in transfected cells; host or cells: CHO cells
T1 sequence (Q14416 19-872): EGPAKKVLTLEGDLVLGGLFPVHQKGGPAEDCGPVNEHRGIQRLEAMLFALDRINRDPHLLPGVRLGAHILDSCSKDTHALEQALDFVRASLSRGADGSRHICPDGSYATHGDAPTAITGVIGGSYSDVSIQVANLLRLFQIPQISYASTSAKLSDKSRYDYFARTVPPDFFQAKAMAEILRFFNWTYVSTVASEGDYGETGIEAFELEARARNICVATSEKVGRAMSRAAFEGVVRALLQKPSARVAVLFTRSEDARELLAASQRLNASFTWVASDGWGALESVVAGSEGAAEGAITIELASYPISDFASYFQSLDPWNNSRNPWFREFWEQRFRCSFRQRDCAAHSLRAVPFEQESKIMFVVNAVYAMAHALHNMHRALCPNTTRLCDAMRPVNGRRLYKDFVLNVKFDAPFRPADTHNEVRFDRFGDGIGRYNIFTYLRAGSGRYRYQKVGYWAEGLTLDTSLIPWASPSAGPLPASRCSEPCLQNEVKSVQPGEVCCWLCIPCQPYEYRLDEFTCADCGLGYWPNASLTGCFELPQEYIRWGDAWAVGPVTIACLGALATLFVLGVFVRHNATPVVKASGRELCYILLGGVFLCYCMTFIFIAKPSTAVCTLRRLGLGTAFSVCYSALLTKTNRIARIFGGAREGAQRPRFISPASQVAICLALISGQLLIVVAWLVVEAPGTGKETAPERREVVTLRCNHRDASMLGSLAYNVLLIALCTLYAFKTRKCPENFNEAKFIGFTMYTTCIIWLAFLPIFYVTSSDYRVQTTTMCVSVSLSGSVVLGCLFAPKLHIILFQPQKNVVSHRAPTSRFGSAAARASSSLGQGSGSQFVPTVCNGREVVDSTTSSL
Description: The [^35S]GTPγS binding assay is a functional membrane-based assay used to study G-protein coupled receptor (GPCR) function whereby incorporation of a non-hydrolysable form of GTP, [^35S]GTPγS (guanosine 5′-triphosphate, labelled with […] ^35S), is measured.
CHO-cells were cultured to pre-confluence and stimulated with 5 mM butyrate for 24 hours, prior to washing in PBS, and then collection by scraping in homogenisation buffer (50 mM Tris-HCl buffer, pH 7.4, 4° C.). Cell lysates were homogenized briefly (15 s) using an ultra-turrax homogenizer. The homogenate was centrifuged at 23 500×g for 10 minutes and the supernatant discarded. The pellet was resuspended in 5 mM Tris-HCl, pH 7.4 and centrifuged again (30 000×g, 20 min, 4° C.). The final pellet was resuspended in 50 mM HEPES, pH 7.4 and stored at −80° C. in appropriate aliquots before use. Protein concentration was determined by the Bradford method (Bio-Rad, USA) with bovine serum albumin as standard.
Measurement of mGluR2 positive allosteric modulatory activity of test compounds in membranes containing human mGluR2 was performed using frozen membranes that were thawed and briefly homogenised prior to pre-incubation in 96-well microplates (15 μg/assay well, 30 minutes, 30° C.) in assay buffer (50 mM HEPES pH 7.4, 100 mM NaCl, 3 mM MgCl2, 50 μM GDP, 10 μg/ml saponin,) with increasing concentrations of positive allosteric modulator (from 0.3 nM to 50 μM) and either a minimal pre-determined concentration of glutamate (PAM assay), or no added glutamate. […] After addition of [^35S]GTPγS (0.1 nM, f.c.) to achieve a total reaction volume of 200 μl, microplates were shaken briefly and further incubated to allow [^35S]GTPγS incorporation on activation (30 minutes, 30° C.). The reaction was stopped by rapid vacuum filtration over glass-fibre filter plates (Unifilter 96-well GF/B filter plates, Perkin-Elmer, Downers Grove, USA) microplate using a 96-well plate cell harvester (Filtermate, Perkin-Elmer, USA), and then by washing three times with 300 μl of ice-cold wash buffer (Na2PO4.2H2O 10 mM, NaH2PO4.H2O 10 mM, pH=7.4). Filters were then air-dried, and 40 μl of liquid scintillation cocktail (Microscint-O) was added to each well, and membrane-bound [^35S]GTPγS was measured in a 96-well scintillation plate reader (Top-Count, Perkin-Elmer, USA). Non-specific [^35S]GTPγS binding is determined in the presence of cold 10 μM GTP. Each curve was performed at least once using duplicate sample per data point and at 11 concentrations.
The concentration-response curves of representative compounds of the present invention in the presence of added EC25 of mGluR2 agonist glutamate to determine positive allosteric modulation (PAM), were generated using the Prism GraphPad software (Graph Pad Inc, San Diego, USA). The curves were fitted to a four-parameter logistic equation (Y=Bottom+(Top-Bottom)/(1+10^((Log EC50−X)*Hill Slope) allowing determination of EC50 values. The EC50 is the concentration of a compound that causes a half-maximal potentiation of the glutamate response. This is calculated by subtracting the maximal responses of glutamate in presence of a fully saturating concentration of a positive allosteric modulator from the response of glutamate in absence of a positive allosteric modulator. The concentration producing the half-maximal effect is then calculated as EC50

| melting point | EC50 (human mGluR2 receptor) | GTPγS - hR2 PAM pEC50 (human mGluR2 receptor) | Compound |
| --- | --- | --- | --- |
| 214 °C | 93.3 nM | – | N#Cc1c(N2CCC(F)(c3ccccc3)CC2)ccn2c(CC(F)(F)F)cnc12 [Example 68, 7-(4-Fluoro-4-phenyl-piperidin-1-yl)-3-(2,2,2-trifluoro-ethyl)-imidazo[1,2-a]pyridine-8-carbonitrile] |
| 195.6 °C | 182 nM | – | N#Cc1c(-c2ccc(Sc3ccccc3)cc2)ccn2c(CC(F)(F)F)cnc12 [Example 71] |
| 234.1 °C | 1050 nM | – | Cc1cc(Oc2ccc(-c3ccn4c(CCCC(F)(F)F)cnc4c3C#N)cc2F)ccn1 [Example 73] |
| 163 °C | 170 nM | – | N#Cc1c(-c2ccc(Oc3ccc(F)cc3)cc2)ccn2c(CC(F)(F)F)cnc12 [Example 74] |
| 277.2 °C | 372 nM | – | Cc1cc(Oc2ccc(-c3ccn4c(CCC5CC5)cnc4c3C#N)cc2F)ccn1 [Example 75] |
| 177.9 °C | 105 nM | – | N#Cc1c(-c2ccc(Oc3ccccc3F)cc2)ccn2c(CC(F)(F)F)cnc12 [Example 77] |
| 176 °C | 219 nM | – | N#Cc1c(-c2ccc(Oc3cccc(F)c3)cc2)ccn2c(CC(F)(F)F)cnc12 [Example 78] |
| 173.4 °C | 257 nM | – | N#Cc1c(-c2ccc(C(F)c3ccccc3)cc2)ccn2c(CC(F)(F)F)cnc12 (stereo not drawn) [Example 79] |
| 174.3 °C | – | 6.73 | N#Cc1c(-c2ccc(Oc3ccccc3)cc2)ccn2c(CC(F)(F)F)cnc12 [Example 80] |
| 102.7 °C | 525 nM | – | CC(O)(c1ccccc1)c1ccc(-c2ccn3c(CC(F)(F)F)cnc3c2C#N)cc1 (stereo not drawn) [Example 81] |
| 143.2 °C | 44.7 nM | – | CC(C)(O)c1ccc(Oc2ccc(-c3ccn4c(CC(F)(F)F)cnc4c3C#N)cc2)cc1 [Example 82] |
| 161.6 °C | 275 nM | – | C[C@]1(O)CC[C@@H](Nc2ccc(-c3ccn4c(CC(F)(F)F)cnc4c3C#N)cc2Cl)CC1 [Example 89] |
| 137.5 °C | 1120 nM | – | N#Cc1c(-c2ccc(N[C@H]3CC[C@H](O)CC3)cc2)ccn2c(CC(F)(F)F)cnc12 [Example 91, 7-[4-(4-hydroxy-cyclohexylamino)-phenyl]-3-(2,2,2-trifluoro-ethyl)-imidazo[1,2-a]pyridine-8-carbonitrile] |
| 230.7 °C | – | 6.15 | N#Cc1c(-c2ccc(NC3CCOCC3)c(Cl)c2)ccn2c(CC(F)(F)F)cnc12 [Example 92] |
| 202.6 °C | 174 nM | – | C[C@]1(O)CC[C@H](Nc2ccc(-c3ccn4c(CC(F)(F)F)cnc4c3C#N)cc2Cl)CC1 [Example 94] |
| 123.7 °C | 295 nM | – | N#Cc1c(-c2ccc(N[C@H]3CC[C@H](O)CC3)c(Cl)c2)ccn2c(CC(F)(F)F)cnc12 [Example 96, (trans)-7-[3-Chloro-4-(4-hydroxy-cyclohexylamino)-phenyl]-3-(2,2,2-trifluoro-ethyl)-imidazo[1,2-a]pyridine-8-carbonitrile] |
| 149.7 °C | 631 nM | – | FC(F)(F)Cc1cnc2c(Cl)c(-c3ccc(NC4CCOCC4)c(Cl)c3)ccn12 [Example 99] |
| 205.1 °C | 126 nM | – | C[C@]1(O)CC[C@H](Nc2ccc(-c3ccn4c(CC(F)(F)F)cnc4c3Cl)cc2Cl)CC1 [Example 100, (trans)-4-{2-Chloro-4-[8-chloro-3-(2,2,2-trifluoro-ethyl)-imidazo[1,2-a]pyridin-7-yl]-phenylamino}-1-methyl-cyclohexanol] |
| 210.2 °C | 933 nM | – | N#Cc1c(-c2ccc(O[C@H]3CC[C@@H](O)CC3)c(Cl)c2)ccn2c(CC(F)(F)F)cnc12 [Example 103] |
| 174 °C | 676 nM | – | CC(C)(O)C1CCN(c2ccc(-c3ccn4c(CC(F)(F)F)cnc4c3C#N)cc2)CC1 [Example 112] |
| 207.1 °C | 141 nM | – | N#Cc1c(-c2ccc(COc3cccc(F)c3)cc2)ccn2c(CC(F)(F)F)cnc12 [Example 114] |
| 198.7 °C | 214 nM | – | N#Cc1c(N2CCC3(CCc4ccccc4O3)CC2)ccn2c(CC(F)(F)F)cnc12 [Example 115] |
| 252.5 °C | 174 nM | – | N#Cc1c(N2CCc3c(oc4ccccc34)C2)ccn2c(CC(F)(F)F)cnc12 [Example 116] |

| Compound | melting point | EC50 (human mGluR2 receptor) | GTPγS - hR2 PAM pEC50 (human mGluR2 receptor) |
| --- | --- | --- | --- |
| O[C@H]1CC[C@H](Nc2ccc(-c3ccn4c(CC(F)(F)F)cnc4c3Cl)cc2Cl)CC1 [Example 101, 4-{2-Chloro-4-[8-chloro-3-(2,2,2-trifluoro-ethyl)-imidazo[1,2-a]pyridin-7-yl]phenylamino}-cyclohexanol] | 183.1 °C | 155 nM | – |
